Legend:
lysozyme = assay: ESI-MS of lysozyme glycoforms after incubation with D-ribose; settings: 37° C., 5 days; for Peak area as % of total area of all glycoforms, 14,569: lysozyme + 2D-ribose − 2H2O (14,569 Da); for Peak area as % of total area of all glycoforms, 14,551: lysozyme + 2D-ribose − 3H2O (14,551 Da); for Peak area as % of total area of all glycoforms, 14,533: lysozyme + 2D-ribose − 5H2O (14,533 Da); for Peak area as % of total area of all glycoforms, 14,515: lysozyme + 2D-ribose − 6H2O (14,515 Da); for Peak area as % of total area of all glycoforms, 14,419: lysozyme + D-ribose − 2H2O (14,419 Da); for Peak area as % of total area of all glycoforms, 14,401: lysozyme + D-ribose − 3H2O (14,401 Da); for Peak area as % of total area of all glycoforms, 14,437: lysozyme + D-ribose − H2O (14,437 Da); for Peak area as % of total area of all glycoforms, 14,496: lysozyme + D-ribose − H2O with one carboxymethylated Lys residue (14,496 Da); for Peak area as % of total area of all glycoforms, 14,364: lysozyme with one carboxymethylated Lys residue (14,364 Da); for Peak area as % of total area of all glycoforms, 14,305: unmodified lysozyme (14,305 Da);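 for all read-outs here: lysozyme incubated with D-ribose, with or without anti-glycation agents, then separated by reversed-phase HPLC and analysed by electrospray mass spectrometry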
Protocol: The effect of anti-glycation agents on the accumulation of glycated forms (glycoforms) of protein was evaluated by using electrospray mass spectrometry (ESI-MS). As the molecular mass of BSA was too large to monitor the small mass changes of its glycoforms, lysozyme was incubated with D-ribose and anti-glycants. Lysozyme and its glycoforms were isolated by RP-HPLC and analyzed by mass spectrometry.
Samples of lysozyme (0.756 mM; 4.54 mM of Lys residues) and D-ribose (50 mM) were incubated in the presence and absence of the selected anti-glycation agents at 37° C. for 5 days and subjected to electrospray mass spectrometry (ESI-MS) in order to characterize the protein intermediates as well as carboxymethylated lysozyme. Prior to MS measurements, the proteins were isolated by reversed phase-HPLC and were semi-dried by freeze drying.

[1] = test system: bovine serum albumin (BSA); assay: Fluorescamine assay of free primary amino groups of BSA incubated with D-ribose; assay type: biochemical; settings: free primary amino group on BSA after 5 days at 37° C.; agent at 16.8 times IC50; 64% without agent
Protocol: Fluorescamine assay (Yeboah F. et al., J. Agric. Food Chem. 48, 2766-2774 (2000)) was performed on incubated mixtures of BSA and D-ribose, with or without the identified anti-glycation agents. The mixtures contained BSA (0.075 mM protein concentration or 4.53 mM of Lys residue concentration) and D-ribose (50 mM). […] The fluorescamine assay determines the number of free lysine residues of BSA. In this experiment, the final volume of the incubation mixtures was 10 mL and the incubation time was 5 days at 37° C. Prior to the fluorescamine assay, the proteins were isolated by reverse phase HPLC. The protein content was determined using the Bio-Rad protein determination reagent (Bradford method). The fluorescamine assay was done in triplicate.

[2] = test system: bovine serum albumin (BSA); assay: Maillard fluorescence-based assay of AGEs formation, IC50 determination (BSA + D-ribose); settings: for IC50: inhibition of Maillard fluorescence development, 0.075 mM BSA, 50 mM D-ribose, 37° C., 5 days
Protocol: During the glycation reaction between proteins and reducing sugars, a specific fluorescence with excitation and emission wavelength of 370 nm and 440 nm, respectively, is observed. […] The assay was based on the progressive development of the characteristic Maillard fluorescence (370 nm Ex and 440 nm Em) during the progress of the glycation reaction.
The final assay volume was 200 μl and each assay well contained 0.075 mM BSA, and 50 mM D-ribose. Compounds were assayed at 3 different concentration levels (0.003, 0.03, and 0.3 mg/mL) to determine the effect of concentration on inhibition. Samples were incubated for 5 days.
The Maillard fluorescence was directly measured from the reaction solution, except for the anti-glycants that quenched the Maillard fluorescence, which were analyzed by the earlier-described HPLC method.
Solutions were incubated in microtitre plates (96 wells) at 37° C. for 5 days in a closed system.
After one hour incubation at 37° C., fluorescence readings were taken.
The IC50 values of the compounds that quenched the fluorescence of the glycated BSA were analyzed by on-line monitoring of the fluorescence of the glycated BSA separated from the fluorescence quenching assay compound by RP-HPLC. The elution profile was monitored by UV-diode array and by fluorescence (λex=370 nm, λem=440 nm). […] The incubation conditions were the same as above.

Compound	Peak area as % of total area of all glycoforms, 14,569 (lysozyme) [%]	Peak area as % of total area of all glycoforms, 14,551 (lysozyme) [%]	Peak area as % of total area of all glycoforms, 14,533 (lysozyme) [%]	Peak area as % of total area of all glycoforms, 14,515 (lysozyme) [%]	Peak area as % of total area of all glycoforms, 14,419 (lysozyme) [%]	Peak area as % of total area of all glycoforms, 14,401 (lysozyme) [%]	Peak area as % of total area of all glycoforms, 14,437 (lysozyme) [%]	Peak area as % of total area of all glycoforms, 14,496 (lysozyme) [%]	Peak area as % of total area of all glycoforms, 14,364 (lysozyme) [%]	Peak area as % of total area of all glycoforms, 14,305 (lysozyme) [%]	Unreacted amino group [1] [%]	maximum percentage of the inhibition ([2]; Maillard fluorescence, listed if significantly lower than 100%) [%)]	IC50 [2] [µM]
O=C(O[C@@H]1Cc2c(O)cc(O)cc2O[C@@H]1c1cc(O)c(O)c(O)c1)c1cc(O)c(O)c(O)c1 [(−)-Epigallocatechin gallate]	2.9	0.8	1.7	0.0	2.6	0.0	20.9	0.0	2.0	69.1	58	55	48
CNCC(=O)c1ccc(O)c(O)c1 [Adrenalone]	3.3	1.3	1.3	1.5	2.5	1.7	17.2	2.2	4.8	59.3	45	–	57
Kaempferide	3.9	4.4	4.0	1.6	8.9	5.4	18.5	0.0	2.5	46.7	49	–	280
O=C1C[C@@H](c2ccc(O)c(O)c2)Oc2cc(O)cc(O)c21 [Eriodictyol]	3.1	1.6	1.1	0.0	5.0	0.4	20.2	0.0	1.9	66.7	43	–	250
Oc1cc(O)c2c(c1)O[C@H](c1ccc(O)c(O)c1)[C@H](O)C2 [(−)-Epicatechin]	1.7	0.0	0.0	0.0	2.6	0.0	17.6	0.0	1.8	76.3	57	–	58
Oc1cc(O)c2c(c1)O[C@H](c1ccc(O)c(O)c1)[C@@H](O)C2 [(+)-Catechin]	2.8	1.4	1.2	0.0	4.0	0.0	19.7	0.0	2.0	68.9	66	–	19
O=c1cc(-c2ccccc2O)oc2cc(O)cc(O)c12 [5,7,2′-Trihydroxyflavone]	4.3	4.8	2.3	1.7	9.3	1.6	19.8	0.0	5.8	46.7	53	–	220
O=c1cc(-c2ccc(O)c(O)c2)oc2c(O)c(O)ccc12 [7,8,3′,4′-Tetrahydroxyflavone]	1.6	0.6	0.0	0.0	3.0	0.0	15.9	0.8	2.0	76.2	56	–	150
Cc1cc(N)c2ccccc2c1O [Vitamin K5]	1.6	1.3	1.6	0.0	3.3	0.0	12.2	0.0	4.9	75.1	51	–	90
O=c1cc(-c2cc(O)c(O)c(O)c2)oc2cc(O)cc(O)c12 [5,7,3′,4′,5′-Pentahydroxyflavone]	4.3	4.3	1.7	0.7	8.6	0.2	20.6	0.0	2.2	55.0	54	–	210
O=[N+]([O-])c1ccc(O)c2ncccc12 [Nitroxoline]	1.4	2.1	1.2	1.2	7.8	3.3	11.0	1.0	4.2	66.7	76	–	300

From patent publication US20080139664A1, “ANTI-GLYCATION AGENTS FOR PREVENTING AGE-, DIABETES-, AND SMOKING-RELATED COMPLICATIONS” (NATIONAL RESEARCH COUNCIL OF CANADA, priority 2001, published 2008)
